Laboratory results as given in paper PMC3773979 (Biochemistry, 2010).
Substitutions are numbered along the chain they refer to. Read-outs that look alike come from different tables or passages of the source. Marks after values point to notes of the source that are not given here.

Tests used:
E. coli DHFR [1] = conditions: cited from earlier work
S. pneumoniae DHFR [2] = target: T1, S. pneumoniae DHFR (Streptococcus pneumoniae serotype 4, UniProt Q54801, A78V/I100L/K60Q/V77A); conditions: pH 7.0, MTEN buffer, 25 °C
T1 sequence (Q54801 1-168 K60Q/V77A/A78V/I100L): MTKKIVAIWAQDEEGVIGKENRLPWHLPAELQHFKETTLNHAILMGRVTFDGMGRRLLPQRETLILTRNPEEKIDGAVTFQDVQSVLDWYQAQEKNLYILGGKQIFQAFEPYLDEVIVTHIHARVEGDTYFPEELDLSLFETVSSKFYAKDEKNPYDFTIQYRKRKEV

Sp9 mutant DHFR [3] = target: Sp9 mutant DHFR (Streptococcus pneumoniae serotype 4, UniProt Q54801, A149T/E133A/H26Y/I100V/Q81H/Q91S); conditions: pH 7.0, MTEN buffer, 25 °C
Sp9 mutant DHFR [4] = target: T2, Sp9 mutant DHFR (Streptococcus pneumoniae serotype 4, UniProt Q54801, A149T/E133A/H26Y/I100V/Q81H/Q91S); assay: Equilibrium fluorescence quenching titration, Sp9; assay type: binding; conditions: read-out: Kd (NADPH), pH 7.0, MTEN buffer
T2 sequence (Q54801 1-168 H26Y/Q81H/Q91S/I100V/E133A/A149T): T1 sequence (Q54801 1-168 K60Q/V77A/A78V/I100L) with H26Y, Q60K, A77V, V78A, Q81H, Q91S, L100V, E133A, A149T

S. pneumoniae DHFR [5] = target: T1, S. pneumoniae DHFR; assay: Equilibrium fluorescence quenching titration, spDHFR; assay type: binding; conditions: read-out: Kd (NADPH), pH 7.0, MTEN buffer
S. pneumoniae DHFR [6] = target: T1, S. pneumoniae DHFR; assay: Stopped-flow binding kinetics; conditions: MTEN buffer, 25 °C, relaxation method
E. coli DHFR (wt) = conditions: read-out: Kd (NADPH); pH 7.0; cited from earlier work
E. coli DHFR [7] = conditions: cited from earlier work; remark: listed apart in the source
Bacterial DHFRs = conditions: cited from earlier work

## Nc1nc(=O)c2c([nH]1)NCC(CNc1ccc(C(=O)N[C@@H](CCC(=O)O)C(=O)O)cc1)=N2 [H2F, 7,8-dihydrofolate]
E. coli DHFR [1]; read-out: KM (H2F)
  Km: 0.7 µM
S. pneumoniae DHFR [2]; read-out: KM (H2F)
  Km: 4.4 ± 0.95 µM
Sp9 mutant DHFR [3]; read-out: KM (H2F)
  Km: < 0.63 µM

## NC(=O)C1=CN([C@@H]2O[C@H](COP(=O)(O)OP(=O)(O)OC[C@H]3O[C@@H](n4cnc5c(N)ncnc54)[C@H](OP(=O)(O)O)[C@@H]3O)[C@@H](O)[C@H]2O)C=CC1 [NADPH, nicotinamide adenine dinucleotide phosphate (reduced form)]
E. coli DHFR [1]; read-out: KM (NADPH)
  Km: 4.8 µM
S. pneumoniae DHFR [2]; read-out: KM (NADPH)
  Km: 15.7 ± 4.6 µM
Sp9 mutant DHFR [4]
  Kd: 160 ± 58 nM
S. pneumoniae DHFR [5]
  Kd: 210 ± 13 nM
S. pneumoniae DHFR [6]
  koff (NADPH): 18.0 ± 3.2 s⁻¹
  kon (NADPH): 11.9 ± 1.4 μM ^−1s^−1
Sp9 mutant DHFR [3]; read-out: KM (NADPH)
  Km: 0.75 ± 0.3 µM
E. coli DHFR (wt)
  Kd: 330 nM
E. coli DHFR [7]
  koff (NADPH): 3.5 ^* s^−1
  kon (NADPH): 20.0 ^* μM ^−1s^−1

## COc1cc(Cc2cnc(N)nc2N)cc(OC)c1OC [Trimethoprim]
Bacterial DHFRs; bacterial DHFRs
  TMP binding: 0.08 nM
Bacterial DHFRs; bacterial versus human DHFR
  tighter binding to bacterial DHFRs than human DHFR: 2500 fold
